From ChEMBL document CHEMBL3875218, “Bifunctional conjugates with potent inhibitory activity towards cyclooxygenase and histone deacetylase” (Bioorg Med Chem, 2017)

Tests used:
[1] = Cytotoxicity against African green monkey Vero cells assessed as cell growth inhibition after 72 hrs by MTT assay; assay type: toxicity, cell-based; details: African green monkey (Chlorocebus sabaeus)
[2] = Cytotoxicity against human HeLa cells assessed as cell growth inhibition after 72 hrs by MTT assay
LNCaP [3] = assay: Induction of cell cycle arrest in human LNCAP cells assessed as accumulation at lesser G1 phase at 2.5 uM after 24 hrs by propidium iodide staining based FACS analysis (reference value: 1.59%); assay type: functional
LNCaP [4] = assay: Induction of cell cycle arrest in human LNCAP cells assessed as accumulation at G1 phase at 2.5 uM after 24 hrs by propidium iodide staining based FACS analysis (reference value: 69.5%); assay type: functional
LNCaP [5] = assay: Induction of cell cycle arrest in human LNCAP cells assessed as accumulation at S phase at 2.5 uM after 24 hrs by propidium iodide staining based FACS analysis (reference value: […]); assay type: functional
LNCaP [6] = assay: Induction of cell cycle arrest in human LNCAP cells assessed as accumulation at G2 phase at 2.5 uM after 24 hrs by propidium iodide staining based FACS analysis (reference value: 1.08%); assay type: functional
LNCaP [7] = assay: Induction of cell cycle arrest in human LNCAP cells assessed as accumulation at greater G2 phase at 2.5 uM after 24 hrs by propidium iodide staining based FACS analysis (reference value: 0.20%); assay type: functional
Histone deacetylase 1 = Histone deacetylase 1 (Homo sapiens, UniProt Q13547); assay: Inhibition of HDAC1 (unknown origin) after 24 hrs by SAMDI mass spectroscopic analysis
Sequence of Histone deacetylase 1 (Q13547 whole entry): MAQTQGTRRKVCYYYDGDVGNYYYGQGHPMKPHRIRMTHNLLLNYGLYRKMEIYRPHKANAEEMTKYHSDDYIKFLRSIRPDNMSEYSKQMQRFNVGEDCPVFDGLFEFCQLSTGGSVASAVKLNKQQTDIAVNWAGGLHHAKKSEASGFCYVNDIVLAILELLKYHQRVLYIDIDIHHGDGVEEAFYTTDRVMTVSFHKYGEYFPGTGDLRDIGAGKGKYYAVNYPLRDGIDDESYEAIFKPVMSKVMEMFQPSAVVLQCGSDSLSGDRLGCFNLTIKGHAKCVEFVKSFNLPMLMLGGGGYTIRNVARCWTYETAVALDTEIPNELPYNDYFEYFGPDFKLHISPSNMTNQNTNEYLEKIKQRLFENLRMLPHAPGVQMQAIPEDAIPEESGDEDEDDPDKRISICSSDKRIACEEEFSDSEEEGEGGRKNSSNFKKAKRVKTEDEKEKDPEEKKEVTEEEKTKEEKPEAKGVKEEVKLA

Histone deacetylase 2 [8] = target: T1, Histone deacetylase 2 (Homo sapiens, UniProt Q92769); assay: Inhibition of HDAC2 (unknown origin) at 10 uM after 24 hrs by SAMDI mass spectroscopic analysis
T1 sequence (Q92769 whole entry): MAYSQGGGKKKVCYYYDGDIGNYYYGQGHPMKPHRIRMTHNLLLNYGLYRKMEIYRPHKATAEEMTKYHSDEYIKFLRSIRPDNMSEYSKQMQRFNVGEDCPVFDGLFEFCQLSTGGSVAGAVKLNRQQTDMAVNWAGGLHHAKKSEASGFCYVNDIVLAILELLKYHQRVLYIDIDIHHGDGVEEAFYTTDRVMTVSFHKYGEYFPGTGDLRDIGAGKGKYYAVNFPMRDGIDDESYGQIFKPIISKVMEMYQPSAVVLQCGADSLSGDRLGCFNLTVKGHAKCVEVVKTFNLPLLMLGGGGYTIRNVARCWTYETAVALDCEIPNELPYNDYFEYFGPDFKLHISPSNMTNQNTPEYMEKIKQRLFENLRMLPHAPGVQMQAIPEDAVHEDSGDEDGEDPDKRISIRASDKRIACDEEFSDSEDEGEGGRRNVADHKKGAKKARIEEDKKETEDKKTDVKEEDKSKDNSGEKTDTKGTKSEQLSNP

Histone deacetylase 3 = Histone deacetylase 3 (Homo sapiens, UniProt O15379); assay: Inhibition of HDAC3 (unknown origin) after 5 hrs by SAMDI mass spectroscopic analysis
Sequence of Histone deacetylase 3 (O15379 whole entry): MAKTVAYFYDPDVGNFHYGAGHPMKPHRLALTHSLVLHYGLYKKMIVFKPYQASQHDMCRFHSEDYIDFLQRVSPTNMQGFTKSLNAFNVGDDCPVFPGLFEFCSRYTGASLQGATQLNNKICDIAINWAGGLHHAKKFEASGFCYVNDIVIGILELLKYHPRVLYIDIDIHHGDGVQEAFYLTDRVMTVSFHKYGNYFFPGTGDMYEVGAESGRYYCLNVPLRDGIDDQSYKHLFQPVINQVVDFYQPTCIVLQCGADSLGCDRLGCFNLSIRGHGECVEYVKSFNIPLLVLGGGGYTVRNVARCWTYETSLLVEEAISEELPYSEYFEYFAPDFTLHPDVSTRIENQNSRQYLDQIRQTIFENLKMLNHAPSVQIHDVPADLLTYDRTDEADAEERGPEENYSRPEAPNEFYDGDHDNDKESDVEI

[9] = target: T2, Protein deacetylase HDAC6 (Homo sapiens, UniProt Q9UBN7); assay: Inhibition of HDAC6 (unknown origin) after 20 hrs by SAMDI mass spectroscopic analysis
T2 sequence (Q9UBN7 whole entry): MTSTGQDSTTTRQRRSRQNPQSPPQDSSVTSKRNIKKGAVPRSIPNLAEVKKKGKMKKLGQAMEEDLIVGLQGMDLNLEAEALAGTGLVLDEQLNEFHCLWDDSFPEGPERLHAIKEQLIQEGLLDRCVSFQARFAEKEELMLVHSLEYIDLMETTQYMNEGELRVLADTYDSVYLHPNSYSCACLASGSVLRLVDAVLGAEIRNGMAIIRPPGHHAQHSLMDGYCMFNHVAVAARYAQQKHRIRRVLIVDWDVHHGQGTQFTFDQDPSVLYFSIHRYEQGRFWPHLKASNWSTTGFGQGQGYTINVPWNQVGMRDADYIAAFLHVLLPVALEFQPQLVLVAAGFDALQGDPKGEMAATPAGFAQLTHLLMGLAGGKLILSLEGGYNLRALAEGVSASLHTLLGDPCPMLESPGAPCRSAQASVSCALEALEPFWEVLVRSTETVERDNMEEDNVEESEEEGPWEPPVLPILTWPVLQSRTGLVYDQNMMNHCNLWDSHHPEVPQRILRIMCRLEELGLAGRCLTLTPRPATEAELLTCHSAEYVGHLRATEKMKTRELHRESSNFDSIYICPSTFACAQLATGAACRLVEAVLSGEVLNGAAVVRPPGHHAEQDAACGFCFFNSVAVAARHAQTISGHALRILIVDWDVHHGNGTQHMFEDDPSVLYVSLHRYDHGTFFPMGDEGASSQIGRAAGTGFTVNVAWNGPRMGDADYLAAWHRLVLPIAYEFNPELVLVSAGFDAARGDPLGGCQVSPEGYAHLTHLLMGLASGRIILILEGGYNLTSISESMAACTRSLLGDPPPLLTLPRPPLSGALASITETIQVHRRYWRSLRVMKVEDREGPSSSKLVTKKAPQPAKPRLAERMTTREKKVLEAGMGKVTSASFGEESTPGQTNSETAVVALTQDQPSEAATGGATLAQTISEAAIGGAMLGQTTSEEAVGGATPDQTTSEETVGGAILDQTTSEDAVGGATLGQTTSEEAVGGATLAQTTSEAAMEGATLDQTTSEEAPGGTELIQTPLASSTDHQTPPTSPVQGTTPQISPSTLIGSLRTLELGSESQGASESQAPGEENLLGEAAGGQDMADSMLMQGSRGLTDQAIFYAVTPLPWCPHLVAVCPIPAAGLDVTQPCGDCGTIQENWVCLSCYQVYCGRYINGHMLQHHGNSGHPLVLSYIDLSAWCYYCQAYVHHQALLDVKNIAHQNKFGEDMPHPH

Histone deacetylase 8 = target: T3, Histone deacetylase 8 (Homo sapiens, UniProt Q9BY41); assay: Inhibition of HDAC8 (unknown origin) after 2.5 hrs by SAMDI mass spectroscopic analysis
T3 sequence (Q9BY41 whole entry): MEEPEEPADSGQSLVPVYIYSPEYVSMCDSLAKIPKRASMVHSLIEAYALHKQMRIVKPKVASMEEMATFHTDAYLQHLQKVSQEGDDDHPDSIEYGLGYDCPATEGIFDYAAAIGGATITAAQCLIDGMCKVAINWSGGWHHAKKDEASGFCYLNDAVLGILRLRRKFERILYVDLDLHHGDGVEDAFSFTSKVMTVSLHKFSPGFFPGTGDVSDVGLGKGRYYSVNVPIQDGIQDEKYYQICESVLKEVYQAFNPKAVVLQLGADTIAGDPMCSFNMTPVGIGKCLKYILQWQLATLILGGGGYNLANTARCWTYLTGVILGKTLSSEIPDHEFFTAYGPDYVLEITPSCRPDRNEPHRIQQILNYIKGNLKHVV

[10] = target: T4, Prostaglandin G/H synthase 1 (Ovis aries) (UniProt P05979); assay: Inhibition of sheep COX1 at 10 uM using arachidonic acid as substrate preincubated for 15 mins followed by substrate addition for 2 mins by Cayman based fluorescence assay
T4 sequence (whole entry): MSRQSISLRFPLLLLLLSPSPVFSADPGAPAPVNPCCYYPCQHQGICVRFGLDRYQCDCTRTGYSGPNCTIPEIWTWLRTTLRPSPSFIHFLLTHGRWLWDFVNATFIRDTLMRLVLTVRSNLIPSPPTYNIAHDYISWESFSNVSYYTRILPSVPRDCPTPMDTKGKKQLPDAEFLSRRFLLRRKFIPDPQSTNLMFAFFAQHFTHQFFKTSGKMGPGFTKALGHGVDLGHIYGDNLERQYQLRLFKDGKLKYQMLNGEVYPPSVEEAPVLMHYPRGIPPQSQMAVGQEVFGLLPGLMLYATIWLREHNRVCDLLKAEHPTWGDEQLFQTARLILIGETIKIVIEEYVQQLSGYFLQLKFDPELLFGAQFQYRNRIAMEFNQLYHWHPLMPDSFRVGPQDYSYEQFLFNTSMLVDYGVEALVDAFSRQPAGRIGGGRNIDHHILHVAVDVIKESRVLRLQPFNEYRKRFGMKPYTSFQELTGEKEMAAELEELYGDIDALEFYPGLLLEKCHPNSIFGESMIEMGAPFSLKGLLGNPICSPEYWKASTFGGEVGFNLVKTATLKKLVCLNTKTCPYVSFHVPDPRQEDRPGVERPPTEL

[11] = target: T5, Prostaglandin G/H synthase 2 (Homo sapiens) (UniProt P35354); assay: Inhibition of recombinant human COX2 at 10 uM using arachidonic acid as substrate preincubated for 15 mins followed by substrate addition for 2 mins by Cayman based fluorescence assay
T5 sequence (whole entry): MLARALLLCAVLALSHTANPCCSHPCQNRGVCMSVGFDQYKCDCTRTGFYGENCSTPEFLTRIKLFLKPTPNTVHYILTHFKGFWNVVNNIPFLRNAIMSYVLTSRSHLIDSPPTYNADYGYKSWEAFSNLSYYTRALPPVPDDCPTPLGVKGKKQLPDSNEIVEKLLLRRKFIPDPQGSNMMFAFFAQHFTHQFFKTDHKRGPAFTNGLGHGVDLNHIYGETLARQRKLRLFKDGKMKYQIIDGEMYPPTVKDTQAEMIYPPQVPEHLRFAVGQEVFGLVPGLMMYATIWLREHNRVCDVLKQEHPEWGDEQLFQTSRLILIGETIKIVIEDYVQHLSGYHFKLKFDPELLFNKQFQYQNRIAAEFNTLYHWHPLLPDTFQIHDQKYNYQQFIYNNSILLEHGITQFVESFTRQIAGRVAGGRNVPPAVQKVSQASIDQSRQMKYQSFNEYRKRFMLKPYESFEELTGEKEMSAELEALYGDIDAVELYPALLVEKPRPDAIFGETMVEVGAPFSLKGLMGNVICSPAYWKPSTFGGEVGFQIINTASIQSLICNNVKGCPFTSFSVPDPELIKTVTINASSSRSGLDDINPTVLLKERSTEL

[12] = Cytotoxicity against human MCF7 cells assessed as cell growth inhibition after 72 hrs by MTT assay; assay type: functional, cell-based; details: MCF7, 72 h
[13] = Cytotoxicity against human HCT116 cells assessed as cell growth inhibition after 72 hrs by MTT assay; assay type: functional, cell-based; details: HCT-116, 72 h
[14] = Cytotoxicity against human LNCAP cells assessed as cell growth inhibition after 72 hrs by MTT assay; assay type: functional, cell-based
[15] = Cytotoxicity against human DU145 cells assessed as cell growth inhibition after 72 hrs by MTT assay; assay type: functional, cell-based; details: DU-145, 72 h
Histone deacetylase 2 [16] = target: T1, Histone deacetylase 2; assay: Inhibition of HDAC2 (unknown origin) after 24 hrs by SAMDI mass spectroscopic analysis
[17] = Cytotoxicity against human A549 cells assessed as cell growth inhibition after 72 hrs by MTT assay; assay type: functional, cell-based; details: A549, 72 h
[18] = target: T6, Prostaglandin G/H synthase 2 (Homo sapiens, UniProt P35354); assay: Inhibition of recombinant human COX2 using arachidonic acid as substrate preincubated for 15 mins followed by substrate addition for 2 mins by Cayman based fluorescence assay
T6 sequence (P35354 whole entry): T5 sequence (whole entry)

[19] = target: T7, Prostaglandin G/H synthase 1 (Ovis aries, UniProt P05979); assay: Inhibition of sheep COX1 using arachidonic acid as substrate preincubated for 15 mins followed by substrate addition for 2 mins by Cayman based fluorescence assay
T7 sequence (P05979 whole entry): T4 sequence (whole entry)

Row | Compound | IC50 (Histone deacetylase 1) [µM] | IC50 (Histone deacetylase 3) [µM] | IC50 [9] [µM] | IC50 (Histone deacetylase 8) [µM] | inhibition [10] [%] | inhibition [11] [%] | IC50 (Histone deacetylase 2 [16]) [µM] | IC50 at 72 h [1] [µM] | IC50 [12] [µM] | IC50 [13] [µM] | IC50 [14] [µM] | IC50 [17] [µM] | other results
1 | O=C(CCCCCCC(=O)Nc1ccccc1)NO [VORINOSTAT] | – | – | – | – | – | – | – | 1.03 | – | – | – | – | IC50 [2]: 2.12 µM; Activity (LNCaP [3]): -4.88%; Activity (LNCaP [4]): 85.6%; Activity (LNCaP [5]): 18.4%; Activity (LNCaP [6]): 0.69%; Activity (LNCaP [7]): 0.31%
2 | Cc1ccc(-c2cc(C(F)(F)F)nn2-c2ccc(S(=O)(=O)NCCCCCC(=O)NO)cc2)cc1 | 1.87 | 1.02 | 0.076 | 0.226 | 16.2 | 97.7 | 2.06 | 6.83 | 7.77 | 8.74 | 8.88 | 10.4 | –
3 | Cc1ccc(-c2cc(C(=O)NCCCCCCC(=O)NO)nn2-c2ccc(S(N)(=O)=O)cc2)cc1 | 0.208 | 0.333 | 0.083 | 0.52 | 26.4 | 71.1 | 0.294 | > 100 | > 100 | 25 | > 20 | > 100 | –
4 | COc1ccc2c(c1)c(CC(=O)NCCCCCC(=O)NO)c(C)n2C(=O)c1ccc(Cl)cc1 | 1.81 | 0.722 | 0.049 | 0.345 | 40.2 | 95.1 | – | – | > 100 | 16.1 | > 20 | 31.9 | inhibition (Histone deacetylase 2 [8]): 41%

More lines, main results first:

Row | IC50 (Histone deacetylase 1) [µM] | IC50 (Histone deacetylase 3) [µM] | IC50 [9] [µM] | IC50 (Histone deacetylase 8) [µM] | inhibition [10] [%] | inhibition [11] [%] | IC50 (Histone deacetylase 2 [16]) [µM] | Compound | IC50 at 72 h [1] [µM] | IC50 [12] [µM] | IC50 [13] [µM] | IC50 [14] [µM] | IC50 [17] [µM] | other results
5 | 1.76 | 0.283 | 0.05 | 0.707 | 42.8 | 96.2 | – | COc1ccc2c(c1)c(CC(=O)NCCCCCCCC(=O)NO)c(C)n2C(=O)c1ccc(Cl)cc1 | 34.7 | 25.1 | 24.9 | 6.46 | – | inhibition (Histone deacetylase 2 [8]): 43%; IC50 [15]: > 20 µM
6 | 0.4 | 0.191 | 0.092 | 0.544 | – | 19.1 | 0.232 | Cc1ccc(-c2cc(C(=O)NCCCCCC(=O)NO)nn2-c2ccc(S(N)(=O)=O)cc2)cc1 | > 100 | > 100 | – | – | > 100 | –
7 | 0.251 | 0.181 | 0.005 | 0.394 | 7.08 | 78.2 | 0.209 | COC(=O)Cc1c(C)n(Cc2ccc(-c3cn(CCCCCCCC(=O)NO)nn3)cc2)c2ccc(OC)cc12 | 5.73 | – | 1.28 | 1.53 | – | IC50 [18]: 4.58 µM; IC50 [19]: 12 µM
8 | 0.778 | 0.224 | 6.83 | 0.672 | – | 11.5 | 1.36 | COC(=O)Cc1c(C)n(Cc2ccc(-c3cn(CCCCCC(=O)NO)nn3)cc2)c2ccc(OC)cc12 | 37.8 | 14.2 | 9.31 | > 20 | – | –
9 | 0.968 | 0.256 | 0.061 | 0.989 | 26.1 | 95.6 | 0.929 | Cc1ccc(-c2cc(C(F)(F)F)nn2-c2ccc(S(=O)(=O)NCCCCCCCC(=O)NO)cc2)cc1 | 6.61 | 4.58 | – | 2.11 | 8.15 | IC50 [15]: 10.1 µM
10 | 0.06 | 0.033 | 0.183 | 0.697 | – | 66.9 | 0.032 | Cc1ccc(-c2cc(C(=O)NCCCCCCCC(=O)NO)nn2-c2ccc(S(N)(=O)=O)cc2)cc1 | 12.1 | 59.5 | 7.12 | > 20 | 34.1 | –
